Assay results published in ChEMBL document CHEMBL4017484, “Nitric Oxide Donor-Based Cancer Therapy: Advances and Prospects” (J Med Chem, 2017).

How the values were obtained:
[1] = system: HT-29; assay: Antitumor activity against human HT-29 cells xenografted in athymic nu/nu mouse assessed as reduction in tumor growth at 100 mg/kg administered every day for 18 days relative to vehicle-treated control; assay type: functional; conditions: HT-29, 432 h, read-out: TGI
[2] = Acute toxicity in iv dosed BALB/c nude mouse assessed as mortality after 14 days; assay type: organism-based; conditions: in vivo
[3] = system: HL-60; assay: Antitumor activity against human HL60 cells xenografted in NOD-SCID mouse assessed as reduction in tumor growth at 4 umol/kg, iv measured after 15 to 20 days; assay type: functional; conditions: HL-60, iv, read-out: TGI
[4] = system: HL-60; assay: Antiproliferative activity against human HL60 cells assessed as decrease in cell viability measured after 3 days by MTT assay; assay type: functional, cell-based; conditions: HL-60, 72 h
[5] = substrate: CC(=O)N[C@H]1[C@@H]([C@H](O)[C@H](O)CO)O[C@@](O/N=[N+](\[O-])N2CCCC2)(C(=O)O)C[C@@H]1O; assay: Activity at Clostridium perfringens neuraminidase assessed as release of nitric oxide by UV-vis spectrophotometer

## O=C(CCCO[N+](=O)[O-])Oc1ccccc1C(=O)Oc1ccc(-c2cc(=S)ss2)cc1
[1]
  inhibition in vivo at 100 mg/kg: 85%

## CC1(C)CC[C@]2(C(=O)O[C@H]3O[C@@H](CO)[C@H](O)[C@@H](O)[C@@H]3O)CC[C@]3(C)C(=CC[C@@H]4[C@@]5(C)CC[C@H](OC(=O)CCC(=O)OC6CCN(/[N+]([O-])=N/O[C@@H]7O[C@H](CO)[C@H](O)[C@H](O)[C@H]7O)CC6)C(C)(C)[C@@H]5CC[C@]43C)[C@@H]2C1
[2]
  LD50 at 336 h: 173 mg/kg

## CCOC(=O)N1CCN(/[N+]([O-])=N/Oc2ccc([N+](=O)[O-])cc2[N+](=O)[O-])CC1
[3]
  inhibition in vivo at 4 µmol/kg: 50%
[4]
  IC50: 200 to 500 nM

B1: Sialidase (Clostridium perfringens), P10481 (protein)
chain: MCNKNNTFEKNLDISHKPEPLILFNKDNNIWNSKYFRIPNIQLLNDGTILTFSDIRYNGPDDHAYIDIASARSTDFGKTWSYNIAMKNNRIDSTYSRVMDSTTVITNTGRIILIAGSWNTNGNWAMTTSTRRSDWSVQMIYSDDNGLTWSNKIDLTKDSSKVKNQPSNTIGWLGGVGSGIVMDDGTIVMPAQISLRENNENNYYSLIIYSKDNGETWTMGNKVPNSNTSENMVIELDGALIMSTRYDYSGYRAAYISHDLGTTWEIYEPLNGKILTGKGSGCQGSFIKATTSNGHRIGLISAPKNTKGEYIRDNIAVYMIDFDDLSKGVQEICIPYPEDGNKLGGGYSCLSFKNNHLGIVYEANGNIEYQDLTPYYSLINKQ
[5]
  Km: 140 µM
